Reference: paper PMC12406203 (Journal of Medicinal Chemistry, 2025)
“And” between values parts separate entries of the source, which are not always exact repeats. Equal entries are not always repeated.

Legend:
[1] = system: VEGFR2
[2] = Log D determination; type: physicochemical; conditions: pH 7.4, n-octanol/PBS
Description: Calibration curves for phosphate-buffered saline (PBS) (pH = 7.4) and octanol were prepared (0.05–5 μM). The buffer and n-octanol phases were shaken, using phosphate buffer (pH = 7.4). The phase ratios of buffer to n-octanol were 1:1 (0.8 mL octanol:0.8 mL PBS) and 1:3 (0.4 mL octanol:1.2 mL PBS). Octanol was then pipetted into a HPLC vial, followed by the addition of 1.6 μL of a 10 mM stock DMSO solution and the buffer. The vial was mixed with a vortex mixer and shaken for 3 h in the dark at 23 °C. Subsequently, the aqueous and organic phases were sampled with a syringe into a new HPLC vial, and the samples were analyzed using UHPLC/DAD.

[3] = system: AURKB
[4] = system: SNARK
[5] = system: ERBB4
[6] = system: EGFR
[7] = system: PIM3
[8] = system: AKT2
[9] = system: TYK2(JH1domain-catalytic)
[10] = system: hAChE
[11] = system: ERBB2
[12] = system: ALK
[13] = system: ROCK2
[14] = system: CHEK1
[15] = system: ACVR1B
[16] = system: p38β
[17] = system: AKT1
[18] = system: CSF1R
[19] = system: FGFR3
[20] = system: KIT(V559D,T670I)
[21] = system: IGF1R
[22] = system: p38α
[23] = system: BMPR2
[24] = system: PAK1
[25] = system: PDGFRB
[26] = system: PAK4
[27] = system: CDK3
[28] = system: ABL1-phosphorylated
[29] = system: MAP3K4
[30] = system: PLK4
[31] = system: EPHA2
[32] = system: PIK3C2B
[33] = system: PDGFRA
[34] = system: SH-SY5Y cells; test: MTS metabolic activity (cytotoxicity); type: cell-based, human; conditions: MTS assay, 24 h, concentrations of 5 μM or less
Description: (§1) The human hepatocellular carcinoma HepG2 and human neuroblastoma SH-SY5Y cell lines were purchased from American Type Culture Collection (Manassas, VA, USA). The murine microglia BV2 cells were a generous gift from Dr. Biljana Božić Nedeljković (University of Belgrade, Belgrade, Serbia). Cells were cultured in Advanced Dulbecco’s modified Eagle’s medium (Gibco, Thermo Fisher Scientific, Waltham, MA, USA) supplemented with 10% fetal bovine serum (FBS, Gibco), 2 mM L-glutamine, 50 U/mL penicillin and 50 μg/mL streptomycin (Sigma, St. Louis, MO, USA) in a humidified atmosphere of 95% air and 5% CO2 at 37 °C, and grown to 80% confluence. Prior to cell treatment, complete medium was replaced with serum-free medium. Compounds 94 and 95 were prepared as a stock solution of 30 mM in DMSO and were used at concentrations of 1–100 μM.
(§2) BV2 cells (5 × 10^3/well) and HepG2 and SH-SY5Y cells (1 × 10^4/well) were seeded in 96-well plates and assessed by MTS ([3-(4,5-dimethylthiazol-2-yl)-5-(3-carboxymethoxyphenyl)-2-(4-sulfophenyl)-2H tetrazolium, inner salt) assay for their response to compounds 94 and 95. Cells were treated with increasing concentrations of compounds (1–100 μM) in serum-free medium, and metabolic activity was assessed after 24 h using the CellTiter 96 Aqueous One Solution Cell Proliferation Assay (Promega, Madison, WI, USA), in accordance with the manufacturer’s instructions. Absorbance was measured with an automatic microplate reader (Tecan Safire^2, Switzerland) at a wavelength of 492 nm. Results are presented as a percentage of the control (DMSO).

[35] = system: HepG2 cells; test: MTS metabolic activity (cytotoxicity); type: cell-based, human; conditions: HepG2, MTS assay, 24 h, concentrations of 5 μM or less
Description: as §1, §2

[36] = molecular target: p38α MAPK

CN(C)CCNC(=O)c1cc2c(cnn2CC2CCCCC2)cc1Cc1ccc(F)cc1F [Compound 95, 1-(Cyclohexylmethyl)-5-(2,4-difluorobenzyl)-N-(2-(dimethylamino)ethyl)-1H-indazole-6-carboxamide]
RA @ 1000nM [1]: 100%
RA @ 10000nM [1]: 100%
measured log D at pH 7.4 [2]: 2.77
RA @ 1000nM [3]: 99%
RA @ 10000nM [3]: 71%
RA @ 1000nM [4]: 93%
RA @ 10000nM [4]: 92%
RA @ 1000nM [5]: 93%
RA @ 10000nM [5]: 81%
RA @ 1000nM [6]: 100%
RA @ 10000nM [6]: 100%
RA @ 1000nM [7]: 100%
RA @ 10000nM [7]: 100%
RA @ 1000nM [8]: 100%
RA @ 10000nM [8]: 88%
Pe ± SEM (BBB-PAMPA, pH 7.4, n = 2 novel compounds, n = 3 reference drugs): 13.2 ± 1.1 ×10–6 cm/s
CNS (+/–) (predicted BBB permeation from Pe): CNS+ (CNS+ indicates high predicted BBB permeation [Pe (×10–6 cm/s) > 4.0])
RA @ 1000nM [9]: 89%
RA @ 10000nM [9]: 75%
RA at 100 µM [10]: 53 ± 1%
RA @ 1000nM [11]: 84%
RA @ 10000nM [11]: 78%
RA @ 1000nM [12]: 62%
RA @ 10000nM [12]: 92%
RA @ 1000nM [13]: 83%
RA @ 10000nM [13]: 100%
RA @ 1000nM [14]: 100%
RA @ 10000nM [14]: 100%
RA @ 1000nM [15]: 100%
RA @ 10000nM [15]: 100%
RA @ 1000nM [16]: 84%
RA @ 10000nM [16]: 18%
RA @ 1000nM [17]: 100%
RA @ 10000nM [17]: 100%
RA @ 1000nM [18]: 100%
RA @ 10000nM [18]: 79%
RA @ 1000nM [19]: 100%
RA @ 10000nM [19]: 92%
RA @ 1000nM [20]: 47%
RA @ 10000nM [20]: 94%
RA @ 1000nM [21]: 100%
RA @ 10000nM [21]: 93%
RA @ 1000nM [22]: 6.7%
RA @ 10000nM [22]: 0.1%
RA @ 1000nM [23]: 89%
RA @ 10000nM [23]: 92%
RA @ 1000nM [24]: 100%
RA @ 10000nM [24]: 93%
RA @ 1000nM [25]: 100%
RA @ 10000nM [25]: 96%
RA @ 1000nM [26]: 100%
RA @ 10000nM [26]: 88%
RA @ 1000nM [27]: 100%
RA @ 10000nM [27]: 100%
RA @ 1000nM [28]: 81%
RA @ 10000nM [28]: 85%
RA @ 1000nM [29]: 100%
RA @ 10000nM [29]: 60%
RA @ 1000nM [30]: 100%
RA @ 10000nM [30]: 100%
RA @ 1000nM [31]: 100%
RA @ 10000nM [31]: 100%
RA @ 1000nM [32]: 91%
RA @ 10000nM [32]: 91%
RA @ 1000nM [33]: 92%
RA @ 10000nM [33]: 92%
cell viability [34]: did not affect cell viability
cell viability [35]: did not affect cell viability
IC50 [36]: 191 nM and 87 ng/mL
